Results published in patent publication US20240358726A1, “SPECIFIC T[…] MARIJUANA DOSES FOR STRESS AND PAIN” (Yale University, priority 2021, published 2024).

Key:
Assay type in all cases: in vivo, human
[1] = Plasma levels of CBD and THC after acute dose (Example 1 cross-over study); conditions: over the course of 4.45 hours (285 minutes), recreational marijuana users
Experimental: FIGS. 1A-1B: Plasma levels of CBD and THC—adjusted for baseline, for each of the dose conditions over the course of […] (285 minutes).
(§1) Sessions were completed one-week apart to allow for an adequate washout period between sessions.

[2] = system: recreational marijuana users; test: Wanting More Drug rating (drug craving) after acute dose; conditions: adjusted for baseline
Description: (§2) FIGS. 2A-2D: Blood Pressure, Pulse and Wanting More Drug Rating, adjusted for Baseline.
as §1

[3] = Blood pressure and pulse after acute dose (Example 1 safety study); conditions: recreational marijuana users
Description: as §2, §1
(§3) The first study was directed towards assessing safety of the THC and CBD doses in healthy, recreational cannabis users. […] The novel pain provocation experimental method allowed for detection of this effect within this first safety protocol assessment.

[4] = system: recreational marijuana users; test: Provoked pain and anxiety ratings during adapted CPT protocol; conditions: versus 40 CBD+20 THC, 100 CBD alone and 40 CBD alone; CBD alone versus CBD with low doses of THC (4:1 and 3:1)
Description: FIGS. 3A-3B: Provoked average pain and anxiety (adjusted for baseline) ratings during adapted CPT protocol.
as §1, §3

Structure (SMILES) | plasma THC levels adjusted for baseline, relative to placebo [1] | average drug craving (want more drug), relative to placebo [2] | plasma CBD levels adjusted for baseline, relative to placebo [1] | diastolic BP adjusted for baseline, relative to placebo [3] | reducing pain and stress responses, comparison between dose conditions [4]
C=C(C)[C@@H]1CCC(C)=C[C@H]1c1c(O)cc(CCCCC)cc1O [CBD40, cannabidiol] | not | significantly reduced | – | – | –
C=C(C)[C@@H]1CCC(C)=C[C@H]1c1c(O)cc(CCCCC)cc1O [CBD100, cannabidiol] | not | significantly reduced | significantly increased | significantly increased | –
C=C(C)[C@@H]1CCC(C)=C[C@H]1c1c(O)cc(CCCCC)cc1O [CBD, cannabidiol] | – | – | – | – | not as effective
